Test [1] has as its system panel of 300 human kinases. As to the kind of experiment: Kinase activity panel (Reaction Biology Corp). It counts as biochemical. Conditions: 1 µM compound, 10 µM ATP, 300 kinases. The method, then: (§1) The compounds were tested in duplicate at 1 µM with a 20-minute pre-incubation with enzyme followed by addition of 10 µM ATP.
For the next test, the target named is T1, CAMK1 (Homo sapiens, UniProt Q14012).
T1 construct: purchased Reaction Biology Corp
As to the kind of experiment: Kinase activity panel: CAMK1. It counts as biochemical. To be noted: 1 µM compound, 10 µM ATP. On the procedure:
as §1

Test [2] has as its system NOD1 induced NF-κB and MAPK pathways. As to the kind of experiment: Western blotting of IκBα and phospho-MAPKs in Tri-DAP stimulated 293/hNOD1 cells. Conditions: 50 µg/mL Tri-DAP 1 hour, immunoblotting. It counts as cell-based, human. On the procedure:
Confluent cultures of 293/hNOD1 and -hNOD2 cells seeded in 24-well plates were serum-starved over-night, pre-incubated for 1 hour with compound and then stimulated for 1 hour with either 50 µg/mL Tri-DAP or 25 µg/mL MDP, respectively. Whole cell lysates were prepared in 1X cell lysis buffer (Cell Signaling Technology) supplemented with additional protease, aminopeptidase and phosphatase inhibitors (protease inhibitor cocktail set III, EMD Biosciences; phosphatase inhibitor sets II and III, Sigma-Aldrich). The levels of phosphorylated and total p38, JNK, ERK1/2 and total IκBα were determined by immunoblotting of ∼20 µg protein per sample using the following primary antibodies: phospho-p38 MAPK (12F8, #4631), p38 MAPK (#9212), phospho-JNK (#9251), JNK (#9252) and IκBα (#9242) all purchased from Cell Signaling Technology, and phospho-ERK1/2 (sc-7383) and ERK1/2 (sc-94) antibodies from Santa Cruz Biotechnology.
For orientation: A western blot detects proteins with antibodies after separation by electrophoresis.

The target of test [3] is T2, NOD1 (Mus musculus, UniProt Q8BHB0).
T2 construct: following intraperitoneal injection of FK156 in a model of acute peritonitis; from tissue; host or cells: whole mouse (in vivo)
T2 sequence (Q8BHB0 1-953): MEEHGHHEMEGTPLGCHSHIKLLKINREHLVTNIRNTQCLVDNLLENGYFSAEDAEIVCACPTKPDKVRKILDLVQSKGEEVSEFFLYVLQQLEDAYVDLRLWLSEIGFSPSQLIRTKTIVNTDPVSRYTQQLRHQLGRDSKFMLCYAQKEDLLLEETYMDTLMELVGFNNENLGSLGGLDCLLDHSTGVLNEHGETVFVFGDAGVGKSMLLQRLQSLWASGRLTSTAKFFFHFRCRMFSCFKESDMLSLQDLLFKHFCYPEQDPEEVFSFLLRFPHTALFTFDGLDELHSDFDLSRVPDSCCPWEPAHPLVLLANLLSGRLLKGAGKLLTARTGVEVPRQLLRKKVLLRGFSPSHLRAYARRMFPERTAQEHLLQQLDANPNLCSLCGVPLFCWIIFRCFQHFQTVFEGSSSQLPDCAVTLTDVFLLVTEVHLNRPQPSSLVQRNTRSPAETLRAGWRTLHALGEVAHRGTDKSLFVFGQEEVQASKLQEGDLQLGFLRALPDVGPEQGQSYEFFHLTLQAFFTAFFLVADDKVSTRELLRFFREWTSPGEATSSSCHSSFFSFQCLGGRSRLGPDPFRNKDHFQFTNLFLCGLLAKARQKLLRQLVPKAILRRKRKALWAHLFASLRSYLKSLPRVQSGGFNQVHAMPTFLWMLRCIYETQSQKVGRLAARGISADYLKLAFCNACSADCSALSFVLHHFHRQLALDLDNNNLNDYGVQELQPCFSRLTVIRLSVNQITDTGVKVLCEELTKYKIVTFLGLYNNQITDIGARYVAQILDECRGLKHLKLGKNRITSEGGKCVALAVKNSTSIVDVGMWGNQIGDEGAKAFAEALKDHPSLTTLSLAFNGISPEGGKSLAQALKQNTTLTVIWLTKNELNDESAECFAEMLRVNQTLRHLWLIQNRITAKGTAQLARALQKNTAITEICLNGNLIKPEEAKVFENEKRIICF
As to the kind of experiment: FK156 acute peritonitis model in mice, serum KC and IP-10. It counts as in vivo. To be noted: oral administration, intraperitoneal FK156, data not shown. An excerpt: We speculate that the known differences in ligand recognition between human and mouse NOD1 mapped to residues within the leucine-rich repeat domains could underlie the observed differential activity of the compounds on human versus mouse NOD1 signaling.

Test [4] deals with NOD1. Also noted: method as in PMID 22870324. Conditions: human lung microvascular endothelial cells, 10 µg/mL iE-DAP; cited from earlier work.
The target of a further test is T3, EPHB2 (Homo sapiens, UniProt P29323).
T3 construct: purchased Reaction Biology Corp
T3 sequence (P29323 19-1055): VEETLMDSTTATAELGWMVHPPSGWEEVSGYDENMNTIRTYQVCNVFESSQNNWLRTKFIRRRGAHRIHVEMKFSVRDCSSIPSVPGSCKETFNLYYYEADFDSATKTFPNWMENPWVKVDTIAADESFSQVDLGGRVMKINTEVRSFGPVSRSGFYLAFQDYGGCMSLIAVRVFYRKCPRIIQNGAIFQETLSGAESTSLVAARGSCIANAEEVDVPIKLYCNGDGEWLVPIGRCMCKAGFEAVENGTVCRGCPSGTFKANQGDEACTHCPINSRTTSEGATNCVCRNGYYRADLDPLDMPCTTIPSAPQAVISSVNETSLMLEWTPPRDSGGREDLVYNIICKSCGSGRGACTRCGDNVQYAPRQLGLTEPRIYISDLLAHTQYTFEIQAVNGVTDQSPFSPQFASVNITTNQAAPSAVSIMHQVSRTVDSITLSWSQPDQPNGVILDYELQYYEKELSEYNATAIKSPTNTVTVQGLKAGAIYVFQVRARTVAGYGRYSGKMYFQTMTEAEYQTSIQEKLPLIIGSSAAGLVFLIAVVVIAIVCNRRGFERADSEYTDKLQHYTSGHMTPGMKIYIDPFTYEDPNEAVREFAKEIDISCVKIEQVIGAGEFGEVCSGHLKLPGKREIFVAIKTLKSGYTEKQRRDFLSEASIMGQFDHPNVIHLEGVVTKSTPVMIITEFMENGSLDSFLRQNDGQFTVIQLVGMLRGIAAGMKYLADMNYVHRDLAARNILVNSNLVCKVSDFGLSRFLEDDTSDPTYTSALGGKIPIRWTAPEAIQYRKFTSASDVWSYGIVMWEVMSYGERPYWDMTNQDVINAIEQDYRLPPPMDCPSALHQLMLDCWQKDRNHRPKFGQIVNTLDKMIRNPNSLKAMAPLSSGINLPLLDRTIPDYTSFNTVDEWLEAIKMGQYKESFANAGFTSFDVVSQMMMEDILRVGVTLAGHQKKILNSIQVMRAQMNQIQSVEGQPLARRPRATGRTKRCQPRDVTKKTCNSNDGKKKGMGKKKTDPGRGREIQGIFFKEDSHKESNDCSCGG
As to the kind of experiment: Kinase activity panel: EPHB2. To be noted: 1 µM compound, 10 µM ATP. It counts as biochemical. The method, then:
as §1

For the molecule `CCc1ccc(S(=O)(=O)Nc2cc(-n3c(C)nc4ccccc4c3=O)ccc2F)s1` [GSK223], the “inhibition of any kinase in panel” value in test [1] is recorded as no more than 50%.

In the case of `Cc1nc2ccc(NC(=O)c3cccc(NS(=O)(=O)c4ccc(F)cc4)c3)cc2s1` [GSK966], at CAMK1, the “decrease of CAMK1 activity” value is listed as 55%.

`Cc1ccc(S(=O)(=O)Nc2cccc(C(=O)Nc3ccc4nc(C)sc4c3)c2)cc1` [Compound 16]: the “effect on Tri-DAP induced p-JNK, p-p38 and IκBα responses” value in test [2] was “reduced both phospho-JNK and the weaker phospho-p38 levels while levels of IκBα were increased”.

With `Cc1nc2ccccc2c(=O)n1-c1ccc(Cl)c(NS(=O)(=O)c2ccccc2F)c1` [Compound 22], the “effect on serum KC and IP-10 (CXCL10)” value on NOD1 [3] is “failed to reduce serum KC and IP-10 (CXCL10)”. Besides, in the test on NOD1 [4], the “effect on IL-8 secretion, iE-DAP stimulated” value was “inhibited IL-8 secretion”.

`Cn1c(=O)[nH]c(=O)c2c1nc(CCSc1ccccc1)n2Cc1ccccc1` [SB711]: at EPHB2, the “decrease of EPHB2 activity” value amounted to 51%.

The record behind these values is publication PMC4013053, “Identification of Selective Small Molecule Inhibitors of the Nucleotide-Binding Oligomerization Domain 1 (NOD1) Signaling Pathway” (PLoS ONE, 2014).
